# In patent US20260167622A1, “PAN-KRAS DEGRADING AGENT, AND PREPARATION METHOD THEREFOR AND USE THEREOF” (LEADINGTAC PHARMACEUTICAL (SHAOXING) CO., LTD., priority 2022, published 2026):
# Experiments:
# Assay type in all cases: cell-based
# [1] = tested on: KRAS G12V mutant human lung squamous carcinoma cell SW900; test: 3D cell proliferation inhibition assay, SW900; details: SW900, 168 h, 3D culture, 7 days, CTG
# [2] = tested on: KRAS G13D mutant human colorectal cancer epithelial cell DLD-1; test: 3D cell proliferation inhibition assay, DLD-1; details: DLD-1, 168 h, 3D culture, 7 days, CTG
# In short: (§1)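 Seven-day 3D growth at 37 °C in low-adsorption wells, 5×10^2 cells/well except MKN1 (1×10^3), final compound range 10000–0.026 nM in 0.2% DMSO. CTG luminescence read-out; percent inhibition set against DMSO and medium-only wells, IC50 by curve fitting.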
# [3] = biological target: T1, KRAS G12V protein in SW900 cells (Homo sapiens, UniProt P01116, G12V); test: KRAS degradation assay (Western Blot) in SW900 cells; details: 24 h
# T1 construct: endogenous in cells; host or cells: SW900
# T1 sequence (P01116 1-188 isoform P01116-2 G12V): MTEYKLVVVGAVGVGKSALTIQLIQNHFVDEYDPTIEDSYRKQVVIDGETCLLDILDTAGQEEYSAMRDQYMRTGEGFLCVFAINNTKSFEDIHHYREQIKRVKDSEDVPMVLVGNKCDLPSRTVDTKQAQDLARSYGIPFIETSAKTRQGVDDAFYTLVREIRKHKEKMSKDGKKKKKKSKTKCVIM
# In short: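 Western blot read-out: KRAS band gray value divided by β-actin, compared with DMSO control to give degradation rate. DC50 and Dmax came from log concentration–response fits after 24 h compound exposure (0.03–3000 nM final, 0.25% DMSO) at 37 °C, 5% CO2.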
# [4] = tested on: KRAS G12C mutant human non-small cell lung cancer cell NCI-H358; test: 3D cell proliferation inhibition assay, NCI-H358; details: NCI-H358, 168 h, 3D culture, 7 days, CTG
# In short: as §1
# [5] = tested on: KRAS G12D mutant human lung cancer cell A427; test: 3D cell proliferation inhibition assay, A427; details: A-427, 168 h, 3D culture, 7 days, CTG
# From the text: (§2) Test Example 6: 3D Cell Proliferation Inhibition Assay
# (§3) The inhibitory effects of the compounds on 3D cell proliferation were investigated on KRAS G12C mutant human non-small cell lung cancer cell NCI-H358, KRAS G12D mutant human lung cancer cell A427, KRAS G12D mutant human gastric cancer cell AGS, KRAS G12D mutant human metastatic pancreatic cancer cell AsPc-1, KRAS G12V mutant human lung squamous carcinoma cell SW900, KRAS G12V mutant human colorectal cancer cell SW620, KRAS G13D mutant human colorectal cancer epithelial cell DLD-1, and KRAS WT human gastric cancer cell MKN1. The specific procedures were as follows:
# (§4) 10 μL of each compound solution diluted in a gradient was added to corresponding wells of a 96-well low-adsorption microplate (PerkinElmer), so that the final concentrations of the test compounds in the reaction system were in a range of 10000-0.026 nM. The final concentration of DMSO was 0.2%. Then 90 µL of cells were correspondingly seeded into each well to achieve a cell density of 5×10^2 cells/well (the cell density of SW900 was 5×10^3 cells/well, and the cell density of MKN1 was 1×10^3 cells/well). In addition to test wells for the test compounds, both a DMSO control well and a medium control well were set, with the DMSO control well containing DMSO and cells and the medium well containing only a medium. After the sample loading, the 96-well low-adsorption microplate was incubated in an incubator at 37° C. with […] for 7 days. After 7 days, the microplate was taken out, and 100 μL of CTG reagent (Promega) was added to each well. The plate was incubated at room temperature for 60 m and read on a microplate reader EnVision by the chemiluminescence program. The inhibition rates of the compounds at each concentration were calculated using the formula for the percentage inhibition of cell proliferation: inhibition rate 00=(mean value of DMSO control group−single concentration reading value of compound)/(mean value of DMSO control group−mean value of medium control group)×100. Then non-linear curve fillings for logarithmic concentration-inhibition rate were performed by GraphPad Prism 8, and the IC50 values of the compounds were obtained (Table 6).
# [6] = tested on: KRAS G12D mutant human gastric cancer cell AGS; test: 3D cell proliferation inhibition assay, AGS; details: 168 h, 3D culture, 7 days, CTG
# From the text: as §2, §3, §4
# [7] = tested on: KRAS WT human gastric cancer cell MKN1; test: 3D cell proliferation inhibition assay, MKN1; details: MKN-1, 168 h, 3D culture, 7 days, CTG
# In short: as §1
# [8] = tested on: KRAS G12D mutant human metastatic pancreatic cancer cell AsPc-1; test: 3D cell proliferation inhibition assay, AsPc-1; details: ASPC1, 168 h, 3D culture, 7 days, CTG
# In short: as §1
# [9] = tested on: KRAS G12V mutant human colorectal cancer cell SW620; test: 3D cell proliferation inhibition assay, SW620; details: SW-620, 168 h, 3D culture, 7 days, CTG
# In short: as §1
SMILES,IC50 [1],IC50 [2],DC50 [3],Dmax [3],IC50 [4],IC50 [5],IC50 [6],IC50 [7],IC50 [8],IC50 [9]
"CCc1c(F)ccc2cc(O)cc(-c3ncc4c(N5CCC[C@@](C)(O)C5)nc(OCC5(CN6CCC(CCOCC7CCN(C(=O)c8ccc(Cl)c(N9CCC(=O)NC9=O)c8)CC7)CC6)CC5)nc4c3F)c12 [Example 5, (R)-1-(2-chloro-5-(4-((2-(1-((1-(((7-(8-ethyl-7-fluoro-3-hydroxynaphthalen-1-yl)-8-fluoro-4-(3-hydroxy-3-methylpiperidin-1-yl)pyrido[4,3-d]pyrimidin-2-yl)oxy)methyl)cyclopropyl)methyl)piperidin-4-yl)ethoxy)methyl)piperidine-1-carbonyl)phenyl)dihydropyrimidine-2,4(1H,3H)-dione]",50 to 100 nM,≤ 50 nM,≤ 50 nM,80 to 100%,≤ 50 nM,≤ 50 nM,≤ 50 nM,≤ 50 nM,≤ 50 nM,
"C#Cc1c(F)ccc2cc(O)cc(-c3ncc4c(N5CCC[C@@](C)(O)C5)nc(OCC5(CN6CCC(COCCC7CCN(C(=O)c8ccc(Cl)c(N9CCC(=O)NC9=O)c8)CC7)CC6)CC5)nc4c3F)c12 [Example 10, (R)-1-(2-chloro-5-(4-(2-((1-((1-(((7-(8-ethynyl-7-fluoro-3-hydroxynaphthalen-1-yl)-8-fluoro-4-(3-hydroxy-3-methylpiperidin-1-yl)pyrido[4,3-d]pyrimidin-2-yl)oxy)methyl)cyclopropyl)methyl)piperidin-4-yl)methoxy)ethyl)piperidine-1-carbonyl)phenyl)dihydropyrimidine-2,4(1H,3H)-dione]",≤ 50 nM,50 to 100 nM,≤ 50 nM,80 to 100%,≤ 50 nM,50 to 100 nM,≤ 50 nM,≤ 50 nM,50 to 100 nM,
"CCc1cccc2cc(O)cc(-c3ncc4c(N5CCC[C@@](C)(O)C5)nc(OCC5(CN6CCN(CC7CCC8(CC7)CCN(C(=O)c7ccc(OC)c(N9CCC(=O)NC9=O)c7)CC8)CC6)CC5)nc4c3F)c12 [Example 25, (R)-1-(5-(9-((4-((1-(((7-(8-ethyl-3-hydroxynaphthalen-1-yl)-8-fluoro-4-(3-hydroxy-3-methylpiperidin-1-yl)pyrido[4,3-d]pyrimidin-2-yl)oxy)methyl)cyclopropyl)methyl)piperazin-1-yl)methyl)-3-azaspiro[5.5]undecane-3-carbonyl)-2-methoxyphenyl)dihydropyrimidine-2,4(1H,3H)-dione]",≤ 50 nM,≤ 50 nM,≤ 50 nM,80 to 100%,100 to 500 nM,100 to 500 nM,≤ 50 nM,≤ 50 nM,≤ 50 nM,2.45 nM
"CCc1cccc2cc(O)cc(-c3ncc4c(N5CCC[C@@](C)(O)C5)nc(OCC5(CN6CCN(CC7CCC8(CC7)CCN(C(=O)c7ccc(C)c(N9CCC(=O)NC9=O)c7)CC8)CC6)CC5)nc4c3F)c12 [Example 26, (R)-1-(5-(9-((4-((1-(((7-(8-ethyl-3-hydroxynaphthalen-1-yl)-8-fluoro-4-(3-hydroxy-3-methylpiperidin-1-yl)pyrido[4,3-d]pyrimidin-2-yl)oxy)methyl)cyclopropyl)methyl)piperazin-1-yl)methyl)-3-azaspiro[5.5]undecane-3-carbonyl)-2-methylphenyl)dihydropyrimidine-2,4(1H,3H)-dione]",≤ 50 nM,≤ 50 nM,≤ 50 nM,80 to 100%,100 to 500 nM,100 to 500 nM,≤ 50 nM,≤ 50 nM,≤ 50 nM,2.11 nM
"C#Cc1c(F)ccc2cc(O)cc(-c3ncc4c(N5CCC[C@@](C)(O)C5)nc(OCC5(CN6CCN(CCC7CCC8(CC7)CCN(C(=O)c7ccc(Cl)c(N9CCC(=O)NC9=O)c7)CC8)CC6)CC5)nc4c3F)c12 [Example 9, (R)-1-(2-chloro-5-(9-(2-(4-((1-(((7-(8-ethynyl-7-fluoro-3-hydroxynaphthalen-1-yl)-8-fluoro-4-(3-hydroxy-3-methylpiperidin-1-yl)pyrido[4,3-d]pyrimidin-2-yl)oxy)methyl)cyclopropyl)methyl)piperazin-1-yl)ethyl)-3-azaspiro[5.5]undecane-3-carbonyl)phenyl)dihydropyrimidine-2,4(1H,3H)-dione]",≤ 50 nM,≤ 50 nM,≤ 50 nM,80 to 100%,≤ 50 nM,≤ 50 nM,≤ 50 nM,≤ 50 nM,50 to 100 nM,

# More lines, now with the values ahead:
IC50 [1],IC50 [2],DC50 [3],Dmax [3],IC50 [4],IC50 [5],IC50 [6],IC50 [7],IC50 [8],IC50 [9],SMILES
≤ 50 nM,≤ 50 nM,≤ 50 nM,80 to 100%,100 to 500 nM,50 to 100 nM,≤ 50 nM,50 to 100 nM,≤ 50 nM,,"C#Cc1c(F)ccc2cc(O)cc(-c3ncc4c(N5CCC[C@@H](O)C5)nc(OCC5(CN6CCN(CC7CCC8(CC7)CCN(C(=O)c7ccc(C)c(N9CCC(=O)NC9=O)c7)CC8)CC6)CC5)nc4c3F)c12 [Example 45, (R)-1-(5-(9-((4-((1-(((7-(8-ethynyl-7-fluoro-3-hydroxynaphthalen-1-yl)-8-fluoro-4-(3-hydroxypiperidin-1-yl)pyrido[4,3-d]pyrimidin-2-yl)oxy)methyl)cyclopropyl)methyl)piperazin-1-yl)methyl)-3-azaspiro[5.5]undecane-3-carbonyl)-2-methylphenyl)dihydropyrimidine-2,4(1H,3H)-dione]"
50 to 100 nM,≤ 50 nM,≤ 50 nM,80 to 100%,50 to 100 nM,≤ 50 nM,≤ 50 nM,50 to 100 nM,≤ 50 nM,7.71 nM,"C#Cc1c(F)ccc2cc(O)cc(-c3ccc4c(N5CCC[C@@](C)(O)C5)nc(OCC5(CN6CCN(CC7CCC8(CC7)CCN(C(=O)c7ccc(Cl)c(N9CCC(=O)NC9=O)c7)CC8)CC6)CC5)nc4c3F)c12 [Example 33, (R)-1-(2-chloro-5-(9-((4-((1-(((7-(8-ethynyl-7-fluoro-3-hydroxynaphthalen-1-yl)-8-fluoro-4-(3-hydroxy-3-methylpiperidin-1-yl)quinazolin-2-yl)oxy)methyl)cyclopropyl)methyl)piperazin-1-yl)methyl)-3-azaspiro[5.5]undecane-3-carbonyl)phenyl)dihydropyrimidine-2,4(1H,3H)-dione]"
≤ 50 nM,≤ 50 nM,≤ 50 nM,80 to 100%,50 to 100 nM,50 to 100 nM,≤ 50 nM,≤ 50 nM,≤ 50 nM,3.36 nM,"C#Cc1c(F)ccc2cc(O)cc(-c3ncc4c(N5CCCOCC5)nc(OCC5(CN6CCN(CC7CCC8(CC7)CCN(C(=O)c7ccc(C)c(N9CCC(=O)NC9=O)c7)CC8)CC6)CC5)nc4c3F)c12 [Example 36, 1-(5-(9-((4-((1-(((7-(8-ethynyl-7-fluoro-3-hydroxynaphthalen-1-yl)-8-fluoro-4-(1,4-oxazepan-4-yl)pyrido[4,3-d]pyrimidin-2-yl)oxy)methyl)cyclopropyl)methyl)piperazin-1-yl)methyl)-3-azaspiro[5.5]undecane-3-carbonyl)-2-methylphenyl)dihydropyrimidine-2,4(1H,3H)-dione]"
